Assay results: ChEMBL document CHEMBL1127158, “1,3-dithianes with acid functionalities: potent inhibitors and candidate affinity probes for the gaba-gated chloride channel” (Bioorg Med Chem Lett, 1993)
pIC50: −log10 of the molar value.

target: GABA-A receptor; anion channel; test: Inhibition of [3H]EBOB binding at GABA-gated chloride channel NCB site in bovine brain membranes; assay type: cell membranes, Bos taurus

Compared with `CC(C)(C)C1CSC(c2ccc(C#CCO)cc2)SC1` (centres undefined), `CC(C)(C)C1CSC(c2ccc(C#CCCO)cc2)SC1` (centres undefined) is 0.72 log units lower in pIC50: 7.12 for the first, 6.40 for the second.

Going from `CC(C)(C)C1CSC(c2ccc(C#CCCC(=O)C=[N+]=[N-])cc2)SC1` (centres undefined) to `CC(C)(C)C1CSC(c2ccc(C#CCCC(=O)O)cc2)SC1` (centres undefined), the pIC50 rises from 6.08 to 8.30 (2.22 log units). The second is the more potent here.

Compared with `CC(C)(C)C1CSC(c2ccc(C#CCCCO)cc2)SC1` (centres undefined), `CCCC#Cc1ccc(C2SCC(C(C)(C)C)CS2)cc1` (centres undefined) is 1.22 log units lower in pIC50: 6.39 for the first, 5.17 for the second. The first is the more potent here.

Going from `CCC#Cc1ccc(C2SCC(C(C)(C)C)CS2)cc1` (centres undefined) to `CC#Cc1ccc(C2SCC(C(C)(C)C)CS2)cc1` (centres undefined), the pIC50 rises from 6.16 to 7.46 (1.30 log units).

Compared with `CC(C)(C)C1CSC(c2ccc(C#CC(=O)C=[N+]=[N-])cc2)SC1` (centres undefined), `CC(C)(C)C1CSC(c2ccc(C#CC(=O)O)cc2)SC1` (centres undefined) is 1.99 log units higher in pIC50: 6.16 for the first, 8.15 for the second. The second is the more potent here.

Going from `CC(C)(C)C1CSC(c2ccc(C#CCCP(=O)(O)O)cc2)SC1` (centres undefined) to `CC(C)(C)C1CSC(c2ccc(C#CCC(=O)O)cc2)SC1` (centres undefined), the pIC50 falls from 8.00 to 7.64 (0.36 log units).

Compared with `CCOC(=O)CC#Cc1ccc(C2SCC(C(C)(C)C)CS2)cc1` (centres undefined), `COC(=O)CCC#Cc1ccc(C2SCC(C(C)(C)C)CS2)cc1` (centres undefined) is 1.43 log units higher in pIC50: 6.34 for the first, 7.77 for the second. The second is the more potent here.

Going from `CC(O)C#Cc1ccc(C2SCC(C(C)(C)C)CS2)cc1` (centres undefined) to `CC(C)(O)C#Cc1ccc(C2SCC(C(C)(C)C)CS2)cc1` (centres undefined), the pIC50 falls from 5.51 to less than 5.00. The first is the more potent here.

Compared with `COC(=O)C#Cc1ccc(C2SCC(C(C)(C)C)CS2)cc1` (centres undefined), `C#Cc1ccc(C2SCC(C(C)(C)C)CS2)cc1` (centres undefined) is 0.37 log units lower in pIC50: 8.05 for the first, 7.68 for the second.

`CCOP(=O)(CCC#Cc1ccc(C2SCC(C(C)(C)C)CS2)cc1)OCC` (centres undefined) gave a pIC50 of 5.52.
